Assay results taken from ChEMBL document CHEMBL3431459, “Roche carnitine palmitoyltransferase modulator screening data (supplementary data associated with the publication CHEMBL2216752)”.
Values after ≈ are worked out from the molar mass of the structure shown.

Legend:
[1] = target: T1, Carnitine O-palmitoyltransferase 1, muscle isoform (Homo sapiens, UniProt Q92523); assay: SUPPLEMENTARY: Inhibition of Carnitine palmitoyltransferase 1, muscle isoform; design: species or system Muscle tissue
T1 sequence (Q92523 whole entry): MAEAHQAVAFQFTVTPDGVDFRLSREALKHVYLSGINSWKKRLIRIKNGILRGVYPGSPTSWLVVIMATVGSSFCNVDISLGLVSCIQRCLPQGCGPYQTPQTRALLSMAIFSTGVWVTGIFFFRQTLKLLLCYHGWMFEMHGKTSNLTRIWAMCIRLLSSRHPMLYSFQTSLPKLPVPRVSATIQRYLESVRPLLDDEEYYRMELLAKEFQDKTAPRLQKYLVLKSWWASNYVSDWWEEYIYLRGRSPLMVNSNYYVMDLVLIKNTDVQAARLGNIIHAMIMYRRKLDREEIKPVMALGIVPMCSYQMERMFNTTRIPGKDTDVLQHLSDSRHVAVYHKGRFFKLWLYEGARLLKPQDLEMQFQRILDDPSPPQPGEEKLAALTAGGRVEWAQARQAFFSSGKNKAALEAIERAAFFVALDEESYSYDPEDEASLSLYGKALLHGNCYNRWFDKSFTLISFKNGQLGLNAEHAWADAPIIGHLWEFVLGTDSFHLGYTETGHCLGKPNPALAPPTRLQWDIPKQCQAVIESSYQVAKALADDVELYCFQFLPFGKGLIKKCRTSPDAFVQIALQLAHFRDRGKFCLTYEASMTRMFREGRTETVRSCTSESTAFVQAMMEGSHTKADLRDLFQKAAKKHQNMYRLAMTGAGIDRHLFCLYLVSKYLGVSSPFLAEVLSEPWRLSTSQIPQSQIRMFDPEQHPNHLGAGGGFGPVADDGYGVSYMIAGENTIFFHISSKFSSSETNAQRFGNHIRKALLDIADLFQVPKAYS

[2] = target: T2, Carnitine O-palmitoyltransferase 1, liver isoform (Rattus norvegicus, UniProt P32198); assay: (§1) SUPPLEMENTARY: Inhibition of Carnitine palmitoyltransferase 1, liver isoform
T2 sequence (P32198 whole entry): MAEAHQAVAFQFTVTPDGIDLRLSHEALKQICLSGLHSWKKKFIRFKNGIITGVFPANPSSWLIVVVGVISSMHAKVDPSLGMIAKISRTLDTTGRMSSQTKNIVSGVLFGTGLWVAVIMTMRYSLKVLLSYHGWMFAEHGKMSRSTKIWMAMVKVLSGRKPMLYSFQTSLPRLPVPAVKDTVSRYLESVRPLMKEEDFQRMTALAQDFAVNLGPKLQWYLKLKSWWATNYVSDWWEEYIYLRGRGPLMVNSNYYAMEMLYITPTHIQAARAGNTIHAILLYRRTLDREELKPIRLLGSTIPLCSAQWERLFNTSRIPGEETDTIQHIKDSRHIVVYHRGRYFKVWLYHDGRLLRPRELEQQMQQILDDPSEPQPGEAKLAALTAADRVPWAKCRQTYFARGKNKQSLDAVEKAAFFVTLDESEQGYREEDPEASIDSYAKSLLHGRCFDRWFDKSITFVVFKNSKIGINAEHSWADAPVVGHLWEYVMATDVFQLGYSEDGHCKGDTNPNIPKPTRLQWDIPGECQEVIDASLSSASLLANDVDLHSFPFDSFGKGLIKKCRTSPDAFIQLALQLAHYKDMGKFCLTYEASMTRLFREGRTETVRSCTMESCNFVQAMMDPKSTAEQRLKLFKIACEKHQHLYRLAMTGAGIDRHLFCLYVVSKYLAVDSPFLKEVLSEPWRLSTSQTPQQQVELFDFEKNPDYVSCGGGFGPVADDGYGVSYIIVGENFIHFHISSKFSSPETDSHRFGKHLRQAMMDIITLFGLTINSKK

[3] = target: T3, Carnitine O-palmitoyltransferase 1, liver isoform (Homo sapiens, UniProt P50416); assay: as §1
T3 sequence (P50416 whole entry): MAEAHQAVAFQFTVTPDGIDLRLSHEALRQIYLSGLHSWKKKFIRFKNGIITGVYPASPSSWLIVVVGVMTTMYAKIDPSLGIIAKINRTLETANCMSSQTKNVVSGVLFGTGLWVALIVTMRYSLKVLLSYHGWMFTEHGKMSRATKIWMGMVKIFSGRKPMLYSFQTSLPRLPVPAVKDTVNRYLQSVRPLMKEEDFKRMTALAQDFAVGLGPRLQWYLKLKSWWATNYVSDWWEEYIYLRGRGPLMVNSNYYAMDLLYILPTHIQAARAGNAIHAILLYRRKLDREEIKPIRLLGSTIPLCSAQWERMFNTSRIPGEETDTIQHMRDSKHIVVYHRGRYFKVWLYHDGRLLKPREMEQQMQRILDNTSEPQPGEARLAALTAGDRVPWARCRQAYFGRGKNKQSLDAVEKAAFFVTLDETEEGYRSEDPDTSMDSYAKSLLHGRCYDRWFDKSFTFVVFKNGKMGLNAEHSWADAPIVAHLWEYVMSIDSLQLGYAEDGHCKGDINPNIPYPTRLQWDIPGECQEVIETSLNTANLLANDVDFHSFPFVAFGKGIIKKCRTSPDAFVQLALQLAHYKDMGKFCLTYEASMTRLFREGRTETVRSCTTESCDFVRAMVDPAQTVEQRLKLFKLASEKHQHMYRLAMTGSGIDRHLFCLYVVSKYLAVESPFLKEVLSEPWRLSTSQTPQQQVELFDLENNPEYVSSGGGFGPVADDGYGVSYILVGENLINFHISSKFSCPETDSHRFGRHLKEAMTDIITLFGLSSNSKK

[4] = target: T4, Carnitine O-palmitoyltransferase 2, mitochondrial (Homo sapiens, UniProt P23786); assay: (§2) SUPPLEMENTARY: Inhibition of Carnitine palmitoyltransferase 2
T4 sequence (P23786 whole entry): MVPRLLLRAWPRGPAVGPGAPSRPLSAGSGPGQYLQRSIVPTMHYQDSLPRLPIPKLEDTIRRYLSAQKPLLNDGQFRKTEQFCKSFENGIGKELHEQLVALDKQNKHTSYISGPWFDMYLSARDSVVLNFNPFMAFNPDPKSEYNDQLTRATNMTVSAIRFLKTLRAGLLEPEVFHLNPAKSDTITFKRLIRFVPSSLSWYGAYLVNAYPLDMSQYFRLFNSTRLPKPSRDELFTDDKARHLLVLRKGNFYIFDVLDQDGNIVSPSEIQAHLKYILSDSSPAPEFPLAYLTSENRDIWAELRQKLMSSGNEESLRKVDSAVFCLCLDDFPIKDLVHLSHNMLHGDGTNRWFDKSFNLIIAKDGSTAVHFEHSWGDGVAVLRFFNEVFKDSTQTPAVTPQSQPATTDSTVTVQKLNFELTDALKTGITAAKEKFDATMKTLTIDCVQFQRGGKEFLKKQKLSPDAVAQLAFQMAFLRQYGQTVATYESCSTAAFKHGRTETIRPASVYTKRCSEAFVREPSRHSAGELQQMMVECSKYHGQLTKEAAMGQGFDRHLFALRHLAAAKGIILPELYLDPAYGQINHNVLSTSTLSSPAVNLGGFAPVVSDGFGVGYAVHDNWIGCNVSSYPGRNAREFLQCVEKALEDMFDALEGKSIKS

[5] = target: T5, Carnitine O-palmitoyltransferase 2, mitochondrial (Rattus norvegicus, UniProt P18886); assay: as §2
T5 sequence (P18886 whole entry): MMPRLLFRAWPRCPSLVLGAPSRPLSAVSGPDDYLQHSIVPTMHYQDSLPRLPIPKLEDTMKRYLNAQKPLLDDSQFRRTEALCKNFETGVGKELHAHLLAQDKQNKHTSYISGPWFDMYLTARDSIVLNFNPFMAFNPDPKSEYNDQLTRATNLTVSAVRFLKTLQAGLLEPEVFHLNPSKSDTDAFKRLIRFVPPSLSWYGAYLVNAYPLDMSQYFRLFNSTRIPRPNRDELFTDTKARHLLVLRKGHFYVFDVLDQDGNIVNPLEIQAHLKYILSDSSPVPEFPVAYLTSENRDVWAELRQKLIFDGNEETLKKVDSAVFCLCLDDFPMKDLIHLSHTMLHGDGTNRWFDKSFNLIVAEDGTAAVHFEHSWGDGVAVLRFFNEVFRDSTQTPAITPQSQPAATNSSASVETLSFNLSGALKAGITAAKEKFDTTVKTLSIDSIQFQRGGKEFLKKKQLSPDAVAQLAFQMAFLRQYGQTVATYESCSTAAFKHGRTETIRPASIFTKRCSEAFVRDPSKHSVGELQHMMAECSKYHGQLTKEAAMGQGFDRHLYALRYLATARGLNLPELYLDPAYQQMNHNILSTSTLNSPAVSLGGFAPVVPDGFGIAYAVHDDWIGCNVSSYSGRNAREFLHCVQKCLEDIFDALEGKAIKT

[6] = SUPPLEMENTARY: PAMPA permeability assay; format: physicochemical; details: read-out: Permeability
[7] = SUPPLEMENTARY: Lyophilisation Solubility Assay (LYSA); format: physicochemical; details: read-out: Kinetic_solubility

Row | Compound | IC50 [1] [µM] | IC50 [2] [nM] | IC50 [3] [nM] | IC50 [4] [µM] | IC50 [5] [µM] | Papp [6] [×10⁻⁶ cm/s] | solubility kinetic [7] [µg/mL]
1 | COc1ccc(Cl)cc1Sc1cn(C)c2ccc(C(=O)Nc3ccc(C(=O)O)cc3)cc12 | > 100 | 74 | 61.9 | > 100 | > 100 | 0.53 | 2 (≈ 4.28 µM)
2 | Nc1cccc(-c2nc([C@H]3CCCCN3C(=O)COc3ccccc3)no2)n1 | > 100 | 254 | 111 | 32 | > 100 | 5.45 | 25 (≈ 65.9 µM)
3 | COc1ccc(Cl)cc1S(=O)(=O)N1CCc2c(C)cc(C(=O)Nc3nc(CC(=O)O)cs3)cc21 | > 100 | 12 | 19.3 | > 100 | > 100 | 2.03 | 249 (≈ 477 µM)
4 | COc1ccc(Cl)cc1S(=O)(=O)c1cn(CC(N)=O)c2ccc(C(=O)Nc3ccccc3)cc12 | > 100 | 17.1 | 12.8 | > 100 | > 100 | 0.3 | 2 (≈ 4.02 µM)
5 | COc1ccc(Cl)cc1S(=O)(=O)N1CCOc2c(F)cc(C(=O)Nc3ccc(C(=O)O)cc3)cc21 | > 100 | 45.2 | 77.5 | 11.3 | > 100 | 2.44 | 5 (≈ 9.6 µM)
6 | COc1ccc(Cl)cc1S(=O)(=O)N1COc2c(Cl)cc(C(=O)Nc3ccc(C(=O)O)cc3)cc21 | > 100 | 34.5 | 43.6 | 33.7 | 68.2 | 3.92 | 4 (≈ 7.64 µM)
7 | CCn1cc(Sc2cc(Cl)ccc2OC)c2cc(C(=O)Nc3ccc(C(=O)O)cc3)ccc21 | > 100 | 473 | 169 | > 100 | > 100 | 0.71 | 4 (≈ 8.32 µM)

Stronger by IC50 [1], values ahead:

Row | IC50 [1] [µM] | IC50 [2] [nM] | IC50 [3] [nM] | IC50 [4] [µM] | IC50 [5] [µM] | Papp [6] [×10⁻⁶ cm/s] | solubility kinetic [7] [µg/mL] | Compound
8 | 21.1 | 41.3 | 46.3 | 0.554 | 4.33 | 1.68 | 2 (≈ 3.87 µM) | COc1ccc(Cl)cc1S(=O)(=O)N1CCOc2c(C)cc(C(=O)Nc3ccc(C(=O)O)cc3)cc21
9 | 9.1 | 134 | 131 | 28.1 | 46.5 | 2.15 | 345 (≈ 647 µM) | COc1ccc(Cl)cc1S(=O)(=O)N1CCCCc2ccc(C(=O)Nc3ccc(C(=O)O)c(F)c3)cc21
10 | 9 | 74.8 | 126 | 2.23 | 6.45 | 2.13 | 10 (≈ 19.1 µM) | O=C(Nc1ccc(C(=O)O)c(F)c1)c1ccc2c(c1)N(S(=O)(=O)c1cccc(C(F)(F)F)c1)CCC2
11 | 5.93 | 32.3 | 26.7 | 2.13 | 2.85 | 3.2 | 8 (≈ 16 µM) | COc1ccc(Cl)cc1S(=O)(=O)N1CCCc2ccc(C(=O)Nc3ccc(C(=O)O)cc3)cc21
12 | 2.73 | 123 | 130 | 2.78 | 9.57 | 1.79 | 73 (≈ 135 µM) | COc1ccc(Cl)cc1S(=O)(=O)N1COc2c(F)cc(C(=O)Nc3ccc(C(=O)O)c(Cl)c3)cc21
13 | 2.24 | 21 | 62.2 | 0.672 | 1.66 | 2.4 | 12 (≈ 24 µM) | COc1ccc(Cl)cc1S(=O)(=O)N1CC(C)c2ccc(C(=O)Nc3ccc(C(=O)O)cc3)cc21 (configuration not stated)
14 | 1.96 | 53.7 | 74.7 | 0.537 | 1.86 | 0.67 | 15 (≈ 29.2 µM) | CCn1cc(S(=O)(=O)c2cc(Cl)ccc2OC)c2cc(C(=O)Nc3ccc(C(=O)O)cc3)ccc21
15 | 1.22 | 50.8 | 245 | 4.06 | 23.9 | 1.1 | 30 (≈ 56.7 µM) | COc1ccc(Cl)cc1CN1C(=O)OC(C)(C)c2ccc(C(=O)Nc3ccc(C(=O)O)c(Cl)c3)cc21
16 | 0.512 | 1390 | 474 | 15.4 | > 100 | 1.73 | 19 (≈ 51.3 µM) | O=C(Cn1cc(-c2ccccc2)c2ccccc21)Nc1ccc(C(=O)O)cc1
